Source: patent US11840686B2, “Modulation of prekallikrein (PKK) expression” (Ionis Pharmaceuticals, Inc., priority 2013, dated 2023)
Strand notation (5' to 3'): a small letter for the sugar, then the base; units joined by * are phosphorothioate-linked, units joined directly phosphodiester-linked; [ ] holds rarer units or linkages, { } end groups; capitals alone tell only the bases. e = 2'-O-(2-methoxyethyl) (MOE); k = constrained ethyl (cEt); [5mC] = 5-methylcytosine; d = 2'-deoxy (DNA)

System: human PKK mRNA
Assay: Antisense inhibition of human PKK mRNA in HepaRG cells, 1,000 nM, MOE/deoxy/cEt oligonucleotides (Example 3)
Assay type: cell-based
Conditions: HepaRG cells, electroporation with 1,000 nM antisense oligonucleotide, PKK mRNA by RT-PCR (RTS3454), relative to untreated control cells
Procedure: Additional antisense oligonucleotides were designed targeting a PKK nucleic acid and were tested for their effects on PKK mRNA in vitro.
The chimeric antisense oligonucleotides in the tables below were designed as deoxy, MOE and cEt gapmers. The gapmers are 16 nucleosides in length wherein the nucleoside have either a MOE sugar modification, a cEt sugar modification, or a deoxy modification. The ‘Chemistry’ column describes the sugar modifications of each oligonucleotide. ‘k’ indicates an cEt sugar modification; the number indicates the number of deoxynucleosides; otherwise, indicates a deoxynucleoside; and ‘e’ indicates a 2′-O-methoxyethyl modification. The internucleoside linkages throughout each gapmer are phosphorothioate linkages. All cytosine residues throughout each oligonucleotide are 5-methylcytosines. “Start site” indicates the 5′-most nucleoside to which the gapmer is targeted in the human gene sequence. “Stop site” indicates the 3′-most nucleoside to which the gapmer is targeted in the human gene sequence.
Cultured HepaRG™ cells at a density of 20,000 cells per well were transfected using electroporation with 1,000 nM antisense oligonucleotide. After a treatment period of approximately 24 hours, RNA was isolated from the cells and PKK mRNA levels were measured by quantitative real-time PCR. Human primer probe set RTS3454 was used to measure mRNA levels. ISIS 531231 was also included in this assay. PKK mRNA levels were adjusted according to total RNA content, as measured by RIBOGREEN®. The antisense oligonucleotides were tested in a series of experiments that had similar culture conditions. Results are presented as percent inhibition of PKK, relative to untreated control cells.

[1] = Table 21 experiment, approx. 24 hours
[2] = Table 20, approximately 24 hours
[3] = Table 22 experiment, approx. 24 hours

Substance: 547828 (e[5mC]*e[5mC]*kT*dG*dT*dT*d[5mC]*dG*dA*dT*dG*dT*dA*k[5mC]*kT*eT; antisense) [compound 547828]
- % inhibition [1]: 63%

Substance: 547829 (eA*e[5mC]*k[5mC]*dT*dG*dT*dT*d[5mC]*dG*dA*dT*dG*dT*kA*k[5mC]*eT; antisense) [compound 547829]
- % inhibition [1]: 59%

Substance: 547830 (eG*e[5mC]*kA*d[5mC]*d[5mC]*dT*dG*dT*dT*d[5mC]*dG*dA*dT*kG*kT*eA; antisense) [compound 547830]
- % inhibition [1]: 74%

Substance: 547831 (e[5mC]*eT*kG*d[5mC]*dA*d[5mC]*d[5mC]*dT*dG*dT*dT*d[5mC]*dG*kA*kT*eG; antisense) [compound 547831]
- % inhibition [1]: 49%

Substance: 547832 (eA*e[5mC]*kT*dG*d[5mC]*dA*d[5mC]*d[5mC]*dT*dG*dT*dT*d[5mC]*kG*kA*eT; antisense) [compound 547832]
- % inhibition [1]: 59%

Substance: 547833 (eA*eA*k[5mC]*dT*dG*d[5mC]*dA*d[5mC]*d[5mC]*dT*dG*dT*dT*k[5mC]*kG*eA; antisense) [compound 547833]
- % inhibition [1]: 40%

Substance: 547834 (eA*eA*kA*d[5mC]*dT*dG*d[5mC]*dA*d[5mC]*d[5mC]*dT*dG*dT*kT*k[5mC]*eG; antisense) [compound 547834]
- % inhibition [1]: 63%

Substance: 547836 (eT*e[5mC]*k[5mC]*dA*dG*dA*dA*dA*d[5mC]*dT*dG*d[5mC]*dA*k[5mC]*k[5mC]*eT; antisense) [compound 547836]
- % inhibition [1]: 50%

Substance: 547837 (eT*eG*kT*d[5mC]*d[5mC]*dA*dG*dA*dA*dA*d[5mC]*dT*dG*k[5mC]*kA*e[5mC]; antisense) [compound 547837]
- % inhibition [1]: 51%

Substance: 547838 (e[5mC]*eT*kT*d[5mC]*dA*dA*dG*dG*dA*dA*dT*dG*dT*k[5mC]*k[5mC]*eA; antisense) [compound 547838]
- % inhibition [1]: 45%

Substance: 547839 (eG*e[5mC]*kT*dT*d[5mC]*dA*dA*dG*dG*dA*dA*dT*dG*kT*k[5mC]*e[5mC]; antisense) [compound 547839]
- % inhibition [1]: 35%

Substance: 547840 (antisense eT*eT*kG*d[5mC]*dT*dT*d[5mC]*dA*dA*dG*dG*dA*dA*kT*kG*eT) [compound 547840]
- % inhibition [1]: 36%

Substance: 547841 (antisense e[5mC]*eA*k[5mC]*dA*dT*dT*dG*d[5mC]*dT*dT*d[5mC]*dA*dA*kG*kG*eA) [compound 547841]
- % inhibition [1]: 42%

Substance: 547842 (antisense eG*eA*kT*dG*dA*d[5mC]*d[5mC]*dA*d[5mC]*dA*dT*dT*dG*k[5mC]*kT*eT) [compound 547842]
- % inhibition [1]: 10%

Substance: 547844 (antisense eG*e[5mC]*kA*d[5mC]*dT*dT*dA*dT*dT*dT*dG*dA*dT*kG*kA*e[5mC]) [compound 547844]
- % inhibition [2]: 13%
- % inhibition [3]: 76%

Substance: 547845 (antisense e[5mC]*eG*kA*dT*dG*dG*d[5mC]*dA*dA*dG*d[5mC]*dA*d[5mC]*kT*kT*eA) [compound 547845]
- % inhibition [2]: 0%
- % inhibition [3]: 64%

Substance: 547846 (antisense eT*e[5mC]*kG*dA*dT*dG*dG*d[5mC]*dA*dA*dG*d[5mC]*dA*k[5mC]*kT*eT) [compound 547846]
- % inhibition [2]: 0%
- % inhibition [3]: 42%

Substance: 547847 (antisense e[5mC]*eT*k[5mC]*dG*dA*dT*dG*dG*d[5mC]*dA*dA*dG*d[5mC]*kA*k[5mC]*eT) [compound 547847]
- % inhibition [2]: 46%
- % inhibition [3]: 72%

Substance: 547848 (antisense eA*eT*kG*dT*d[5mC]*dT*d[5mC]*dG*dA*dT*dG*dG*d[5mC]*kA*kA*eG) [compound 547848]
- % inhibition [2]: 93%
- % inhibition [3]: 79%

Substance: 547850 (antisense eA*eA*kA*dT*dG*dT*d[5mC]*dT*d[5mC]*dG*dA*dT*dG*kG*k[5mC]*eA) [compound 547850]
- % inhibition [2]: 51%
- % inhibition [3]: 80%

Substance: 547852 (antisense eA*eT*kA*dA*dA*dT*dG*dT*d[5mC]*dT*d[5mC]*dG*dA*kT*kG*eG) [compound 547852]
- % inhibition [2]: 67%
- % inhibition [3]: 66%

Substance: 547853 (antisense eT*eA*kT*dA*dA*dA*dT*dG*dT*d[5mC]*dT*d[5mC]*dG*kA*kT*eG) [compound 547853]
- % inhibition [2]: 0%
- % inhibition [3]: 30%

Substance: 547854 (antisense eA*eT*k[5mC]*dA*dA*d[5mC]*dT*d[5mC]*d[5mC]*dT*dT*dT*dA*kT*kA*eA) [compound 547854]
- % inhibition [2]: 10%
- % inhibition [3]: 9%

Substance: 547855 (antisense eT*eA*kT*d[5mC]*dA*dA*d[5mC]*dT*d[5mC]*d[5mC]*dT*dT*dT*kA*kT*eA) [compound 547855]
- % inhibition [2]: 59%
- % inhibition [3]: 38%

Substance: 547856 (antisense e[5mC]*eA*kT*dA*dT*d[5mC]*dA*dA*d[5mC]*dT*d[5mC]*d[5mC]*dT*kT*kT*eA) [compound 547856]
- % inhibition [2]: 93%
- % inhibition [3]: 51%

Substance: 547858 (antisense e[5mC]*eT*k[5mC]*dT*d[5mC]*dA*dT*dA*dT*d[5mC]*dA*dA*d[5mC]*kT*k[5mC]*e[5mC]) [compound 547858]
- % inhibition [2]: 82%
- % inhibition [3]: 76%

Substance: 547860 (antisense eT*e[5mC]*k[5mC]*dT*d[5mC]*dT*d[5mC]*dA*dT*dA*dT*d[5mC]*dA*kA*k[5mC]*eT) [compound 547860]
- % inhibition [2]: 71%
- % inhibition [3]: 70%

Substance: 547863 (antisense eT*eG*kA*d[5mC]*dT*d[5mC]*d[5mC]*dT*d[5mC]*dT*d[5mC]*dA*dT*kA*kT*e[5mC]) [compound 547863]
- % inhibition [2]: 73%
- % inhibition [3]: 77%

Substance: 547864 (antisense eT*eT*kG*dA*d[5mC]*dT*d[5mC]*d[5mC]*dT*d[5mC]*dT*d[5mC]*dA*kT*kA*eT) [compound 547864]
- % inhibition [2]: 53%
- % inhibition [3]: 73%

Substance: 547865 (antisense eA*eA*kA*dA*dT*dT*dG*dA*d[5mC]*dT*d[5mC]*d[5mC]*dT*k[5mC]*kT*e[5mC]) [compound 547865]
- % inhibition [2]: 3%
- % inhibition [3]: 61%

Substance: 547866 (antisense eT*eT*kA*dA*dA*dA*dT*dT*dG*dA*d[5mC]*dT*d[5mC]*k[5mC]*kT*e[5mC]) [compound 547866]
- % inhibition [2]: 46%
- % inhibition [3]: 40%

Substance: 547867 (antisense e[5mC]*e[5mC]*kT*dT*dA*dG*dA*d[5mC]*dA*d[5mC]*dA*dT*dT*kA*kA*eA) [compound 547867]
- % inhibition [2]: 34%
- % inhibition [3]: 53%

Substance: 547868 (antisense eA*e[5mC]*k[5mC]*dT*dT*dA*dG*dA*d[5mC]*dA*d[5mC]*dA*dT*kT*kA*eA) [compound 547868]
- % inhibition [2]: 47%
- % inhibition [3]: 71%

Substance: 547869 (antisense eA*eA*k[5mC]*d[5mC]*dT*dT*dA*dG*dA*d[5mC]*dA*d[5mC]*dA*kT*kT*eA) [compound 547869]
- % inhibition [2]: 45%
- % inhibition [3]: 77%

Substance: 547871 (antisense eG*e[5mC]*kT*dA*dA*d[5mC]*d[5mC]*dT*dT*dA*dG*dA*d[5mC]*kA*k[5mC]*eA) [compound 547871]
- % inhibition [2]: 96%
- % inhibition [3]: 77%

Substance: 547872 (antisense eT*eG*k[5mC]*dT*dA*dA*d[5mC]*d[5mC]*dT*dT*dA*dG*dA*k[5mC]*kA*e[5mC]) [compound 547872]
- % inhibition [2]: 85%
- % inhibition [3]: 73%

Substance: 547873 (antisense e[5mC]*eT*kG*d[5mC]*dT*dA*dA*d[5mC]*d[5mC]*dT*dT*dA*dG*kA*k[5mC]*eA) [compound 547873]
- % inhibition [2]: 77%
- % inhibition [3]: 82%

Substance: 547874 (antisense eA*e[5mC]*kT*dG*d[5mC]*dT*dA*dA*d[5mC]*d[5mC]*dT*dT*dA*kG*kA*e[5mC]) [compound 547874]
- % inhibition [2]: 70%
- % inhibition [3]: 60%

Substance: 547875 (antisense e[5mC]*eA*k[5mC]*dT*dG*d[5mC]*dT*dA*dA*d[5mC]*d[5mC]*dT*dT*kA*kG*eA) [compound 547875]
- % inhibition [2]: 73%
- % inhibition [3]: 57%

Substance: 547876 (antisense eA*e[5mC]*kA*d[5mC]*dT*dG*d[5mC]*dT*dA*dA*d[5mC]*d[5mC]*dT*kT*kA*eG) [compound 547876]
- % inhibition [2]: 78%
- % inhibition [3]: 59%

Substance: 547878 (antisense e[5mC]*eA*kA*d[5mC]*dA*d[5mC]*dT*dG*d[5mC]*dT*dA*dA*d[5mC]*k[5mC]*kT*eT) [compound 547878]
- % inhibition [3]: 62%

Substance: 547879 (antisense eT*e[5mC]*kA*dA*d[5mC]*dA*d[5mC]*dT*dG*d[5mC]*dT*dA*dA*k[5mC]*k[5mC]*eT) [compound 547879]
- % inhibition [2]: 69%
- % inhibition [3]: 65%

Substance: 547880 (eT*eT*k[5mC]*dA*dA*d[5mC]*dA*d[5mC]*dT*dG*d[5mC]*dT*dA*kA*k[5mC]*e[5mC]; antisense) [compound 547880]
- % inhibition [2]: 69%
- % inhibition [3]: 59%
